Experiment [1] relates to Influenza A virus. In words: Antiviral activity against influenza A virus harboring wild type M2 ion channel infected in MDCK cells assessed as viral growth inhibition preincubated with cells for 30 mins followed by viral infection and measured after 72 hrs by CCK-8 assay. Format: functional, organism-based.
For experiment [2], the system named is Influenza A virus. Type of experiment: functional, organism-based. As to conditions: A/WSN/33, MDCK, 48 h.
Experiment [3] relates to Influenza A virus. Format: functional, organism-based, A/WSN/33. The note with it: mdck.
Experiment [4] concerns Influenza A virus. Type of experiment: functional, organism-based, A/WSN/33. The note with it: mdck. The source holds these as a separate data set.
Experiment [5] concerns Influenza A virus. Type of experiment: functional, organism-based, A/WSN/33. The note with it: mdck. This is another data set of the same source.
Experiment [6] relates to Influenza A virus. Format: functional, organism-based. As to conditions: A/WSN/33, MDCK, 48 h. This is another data set of the same source.
Experiment [7] has as its system Influenza A virus. Type of experiment: functional, organism-based, A/WSN/33. As to conditions: mdck. The source holds these as a separate data set.
For experiment [8], the system named is Influenza A virus. Format: functional, organism-based, A/WSN/33. The note with it: mdck. The source holds these as a separate data set.
Experiment [9] deals with Influenza A virus. Type of experiment: functional, organism-based, A/WSN/33. The note with it: mdck. This is another data set of the same source.
In experiment [10] the test system is Influenza A virus. Type of experiment: functional, organism-based, A/WSN/33 (H1N1). The note with it: mdck.
The test system of experiment [11] is Influenza A virus. Format: functional, organism-based. The note with it: A/HK/68 (H3N2), MDCK.

Turning to `C[C@H]1[C@H](N)C[C@@H]2C[C@H]1C2(C)C`, the IC50 in the experiment on Influenza A virus [1] (Influenza A virus, MDCK) came to 0.12 µM.
On to `COc1ccc(CNC23CC4CC(CC(C4)C2)C3)c(O)c1`, for which the half-maximal effective concentration (EC50) in the experiment on Influenza A virus [2] was determined as 8.74 µM; with Influenza A virus [3] it was 1.13 µM.
Turning to `CC1(C)[C@@H]2CC[C@@]1(C)[C@@H](CN)C2` [listing 1 of 2 here], the IC50 in the experiment on Influenza A virus [1] (Influenza A virus, MDCK) was 0.29 µM.
On to `CC1(C)[C@@H]2CC[C@@]1(C)[C@@H](CN)C2` [listing 2 of 2 here], for which the concentration for half-maximal inhibition (IC50) in the experiment with Influenza A virus [1] (mdck) was found to be 0.49 µM.
For `COc1ccc(CNc2ccc(C34CC5CC(CC(C5)C3)C4)cc2)c(O)c1`, the half-maximal effective concentration (EC50) with Influenza A virus [4] came out at 48 µM; in the experiment on Influenza A virus [5] it was 17.4 µM; in the experiment on Influenza A virus [6], 0.66 µM; in the experiment with Influenza A virus [7], 22.5 µM; in the experiment with Influenza A virus [8], 55 µM; in the experiment on Influenza A virus [9], 21.6 µM. Further, the EC50 in the experiment on Influenza A virus [2] turned out to be 8.04 µM; in the experiment on Influenza A virus [3], 0.66 µM.
`Cc1cc(/C(=N\O)[C@@H]2C[C@@H]3C[C@H](C2C)C3(C)C)sc1Br` (stereo not given in full): the values for the EC50 in the experiment with Influenza A virus [10] and with Influenza A virus [11] were 5.97 µM and 7.11 µM, respectively.
For `Cc1cc(/C(=N\O)[C@@H]2C[C@@H]3C[C@H](C2C)C3(C)C)sc1Cl` (stereo not given in full) the same measures were 2.45 µM and 3.29 µM.
On to `CC1[C@H]2C[C@@H](C[C@H]1/C(=N/O)c1cc(Cl)c(Cl)s1)C2(C)C` (stereo not given in full), for which the concentration giving a half-maximal response (EC50) was determined as 10.2 µM with Influenza A virus [10] and 9.44 µM in the experiment on Influenza A virus [11].
As to `COc1ccc(CNC23CC4C5CC6CC4C(C2)C(C6)C5C3)c(O)c1`, the EC50 with Influenza A virus [4] was found to be 55.8 µM; in the experiment with Influenza A virus [5] it was 21.2 µM; with Influenza A virus [6], 0.29 µM; in the experiment with Influenza A virus [7] it was 38.4 µM; with Influenza A virus [8] it was 47.5 µM; with Influenza A virus [9] it was 17.3 µM. Moreover, the results for the concentration for a half-maximal effect (EC50) in the experiment on Influenza A virus [2] and with Influenza A virus [3] were 22 µM and 0.29 µM, respectively.
Regarding `CC(N)[C@H]1C[C@H]2CC[C@]1(C)C2(C)C` (stereo not given in full), the half-inhibitory concentration (IC50) with Influenza A virus [1] (Influenza A virus, MDCK) was found to be 0.1 µM.
As for `Cc1cc(/C(=N\O)[C@@H]2C[C@@H]3C[C@H](C2C)C3(C)C)sc1C` (stereo not given in full), the EC50 in the experiment on Influenza A virus [10] stood at 30.2 µM; in the experiment with Influenza A virus [11], 4.84 µM.
Take `Cc1ccc(/C(=N\O)[C@@H]2C[C@@H]3C[C@H](C2C)C3(C)C)s1` (stereo not given in full): the values for the EC50 in the experiment with Influenza A virus [10] and with Influenza A virus [11] were 11.9 µM and 29.1 µM, respectively.
With `COc1ccc(CNC(C)(C)C23CC4CC(CC(C4)C2)C3)c(O)c1`, the EC50 stood at 19.2 µM with Influenza A virus [4]; 19.9 µM in the experiment with Influenza A virus [5]; 0.13 µM in the experiment on Influenza A virus [6]; 43.9 µM with Influenza A virus [7]; 1.8 µM in the experiment with Influenza A virus [9]; 20.9 µM in the experiment with Influenza A virus [2]. The compound also returned a concentration for a half-maximal effect (EC50) with Influenza A virus [3] of 0.09 µM.
In the experiment with Influenza A virus [3], `COc1ccc(CNC23CC4C5CC6C7CC8CC6C(C5C2)C(C8)(C3)C74)c(O)c1` came in with an EC50 of 8.1 µM.
Regarding `CC1[C@H]2C[C@@H](C[C@H]1/C(=N/O)c1cccs1)C2(C)C` (stereo not given in full), the results for the EC50 in the experiment with Influenza A virus [10] and with Influenza A virus [11] were 11.8 µM and 12.4 µM, respectively.
On the same counts, the results for `Cc1csc(/C(=N\O)[C@@H]2C[C@@H]3C[C@H](C2C)C3(C)C)c1` (stereo not given in full) are 14.8 µM and 10.8 µM.
Take `NC12CC3CC(CC(C3)C1)C2` [AMANTADINE]: the IC50 in the experiment with Influenza A virus [1] (Influenza A virus, MDCK) was 0.5 µM.
